Experimental data as given in patent US20090325959A1 (priority 2008, published 2009).
Like-named read-outs stand apart in the source and are kept apart here.

How the values were obtained:
p70S6K human enzyme = biological target: T1, p70S6K human enzyme (Homo sapiens, UniProt P23443, T412E); test: p70S6K inhibition assay (IMAP FP); assay type: biochemical;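 note: kinase reaction run at room temperature, phosphorylated substrate captured on IMAP beads and read as fluorescence polarization in mP, IC50 then converted to Ki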
T1 construct: purchased Upstate Chemicon 14-486
T1 sequence (P23443 1-421 T412E limits assumed): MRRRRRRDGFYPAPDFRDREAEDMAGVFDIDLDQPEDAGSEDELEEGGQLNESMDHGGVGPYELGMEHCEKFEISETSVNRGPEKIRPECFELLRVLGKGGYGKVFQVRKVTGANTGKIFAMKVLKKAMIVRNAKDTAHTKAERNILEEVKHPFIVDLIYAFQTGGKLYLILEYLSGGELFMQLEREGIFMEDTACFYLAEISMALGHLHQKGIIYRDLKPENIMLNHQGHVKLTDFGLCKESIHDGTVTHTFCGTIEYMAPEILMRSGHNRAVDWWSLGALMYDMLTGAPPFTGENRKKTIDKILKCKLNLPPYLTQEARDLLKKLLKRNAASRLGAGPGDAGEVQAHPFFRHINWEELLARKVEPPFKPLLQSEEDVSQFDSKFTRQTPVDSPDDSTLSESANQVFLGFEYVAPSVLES

[1] = Compound plasma concentrations in unsensitized mice at 15 min post administration; assay type: in vivo; conditions: mouse, 15 μmol/kg; mean compound plasma concentration in mice at 15 minutes post oral administration; read-out: Mouse Oral PK
Akt3 human enzyme = biological target: T2, Akt3 human enzyme (Homo sapiens, UniProt Q9Y243); test: Akt3 inhibition assay (IMAP FP); assay type: biochemical;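 note: kinase reaction run 60 min at room temperature after 30 µM ATP start, phosphorylated substrate captured on IMAP beads and read as fluorescence polarization (mP)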
T2 construct: purchased Upstate Chemicon 14-502
T2 sequence (Q9Y243 whole entry): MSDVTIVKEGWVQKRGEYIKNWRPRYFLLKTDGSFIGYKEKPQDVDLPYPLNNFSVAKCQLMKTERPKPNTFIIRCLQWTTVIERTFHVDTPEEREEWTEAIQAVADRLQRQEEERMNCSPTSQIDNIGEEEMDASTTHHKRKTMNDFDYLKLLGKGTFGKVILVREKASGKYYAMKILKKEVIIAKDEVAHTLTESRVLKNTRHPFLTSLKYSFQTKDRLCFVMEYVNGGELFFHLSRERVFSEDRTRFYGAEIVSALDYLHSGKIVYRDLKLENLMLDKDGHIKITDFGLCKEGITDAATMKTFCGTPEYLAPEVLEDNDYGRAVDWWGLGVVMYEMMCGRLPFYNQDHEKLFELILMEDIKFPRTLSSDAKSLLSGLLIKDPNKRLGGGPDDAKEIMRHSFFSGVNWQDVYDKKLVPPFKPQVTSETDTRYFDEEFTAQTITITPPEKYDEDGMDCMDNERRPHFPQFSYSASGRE

ROCK2 = biological target: T3, ROCK2 (Homo sapiens, UniProt O75116); test: Rho kinase inhibition assay (IMAP fluorescence polarization), ROCK2; assay type: biochemical;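 note: kinase reaction started with 10 µM ATP and run 60 min at room temperature, then phosphorylated substrate captured on IMAP beads for 30 min and fluorescence polarization read in mP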
T3 construct: purchased Upstate/Chemicon 14-451
T3 sequence (O75116 11-552 limits assumed): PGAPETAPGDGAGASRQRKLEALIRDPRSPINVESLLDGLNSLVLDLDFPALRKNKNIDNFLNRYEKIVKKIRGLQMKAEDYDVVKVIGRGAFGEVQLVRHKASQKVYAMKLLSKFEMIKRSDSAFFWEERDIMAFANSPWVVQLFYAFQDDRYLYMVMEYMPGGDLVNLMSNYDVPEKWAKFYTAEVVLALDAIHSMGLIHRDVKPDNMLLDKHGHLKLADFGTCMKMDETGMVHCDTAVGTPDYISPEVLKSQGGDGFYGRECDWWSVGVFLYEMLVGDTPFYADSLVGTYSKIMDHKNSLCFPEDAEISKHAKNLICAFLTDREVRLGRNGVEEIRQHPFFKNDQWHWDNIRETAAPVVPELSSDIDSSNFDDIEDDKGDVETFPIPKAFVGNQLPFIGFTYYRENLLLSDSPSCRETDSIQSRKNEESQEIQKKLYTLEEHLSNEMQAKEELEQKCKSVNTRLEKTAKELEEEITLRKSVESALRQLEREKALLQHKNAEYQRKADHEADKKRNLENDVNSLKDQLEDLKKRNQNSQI
Description: (§1) Following the pre-incubation, 10 μM ATP was added to initiate the reaction. After 60 minutes at room temperature, Molecular Devices IMAP™ binding solution was added to bind phosphorylated substrate. After 30 minutes of incubation in the presence of the IMAP™ beads, the fluorescence polarization was read and the ratio was reported as mP. IC50 values for compounds and EC50 values for ATP were calculated using the Prism software from Graphpad.

ROCK1 = biological target: T4, ROCK1 (Homo sapiens, UniProt Q13464); test: Rho kinase inhibition assay (IMAP fluorescence polarization), ROCK1; assay type: biochemical;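 note: kinase reaction run 60 min at room temperature, then phosphorylated substrate captured on IMAP beads for 30 min, with fluorescence polarization read in mP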
T4 construct: purchased Upstate/Chemicon 14-601
T4 sequence (Q13464 17-535 limits assumed): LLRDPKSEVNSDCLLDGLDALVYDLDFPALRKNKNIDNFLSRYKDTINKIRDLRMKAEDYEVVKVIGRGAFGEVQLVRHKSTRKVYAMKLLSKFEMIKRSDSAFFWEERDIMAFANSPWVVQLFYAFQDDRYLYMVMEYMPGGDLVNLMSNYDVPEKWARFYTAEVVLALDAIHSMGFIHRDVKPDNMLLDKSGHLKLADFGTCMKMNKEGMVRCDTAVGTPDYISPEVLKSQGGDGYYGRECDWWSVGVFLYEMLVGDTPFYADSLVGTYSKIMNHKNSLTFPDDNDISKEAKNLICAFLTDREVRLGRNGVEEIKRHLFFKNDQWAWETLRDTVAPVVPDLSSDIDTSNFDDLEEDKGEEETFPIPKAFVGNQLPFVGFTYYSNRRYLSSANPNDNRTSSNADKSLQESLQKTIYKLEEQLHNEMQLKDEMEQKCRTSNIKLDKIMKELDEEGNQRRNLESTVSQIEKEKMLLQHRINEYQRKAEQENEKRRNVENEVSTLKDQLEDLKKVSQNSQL
Description: as §1

[2] = 30 μM ATP, Ki=IC50/(1+([ATP Challenge]/EC50 ATP)), read-out: p70S6K Ki, Avg
[3] = average Ki, read-out: p70S6K Ki
[4] = 30 μM ATP, Ki=IC50/(1+([ATP Challenge]/EC50 ATP)), read-out: Akt3 Ki, Avg
[5] = 10 μM ATP, read-out: ROCK2 Ki, Avg

SMILES	Ki (p70S6K human enzyme; [2])	Ki (p70S6K human enzyme; [3])	concentration at 15 min [1]	Ki (Akt3 human enzyme; [4])	Ki (Akt3 human enzyme; average Ki, read-out: Akt3 Ki)	Ki (ROCK2; [5])	Ki (ROCK2; average Ki, read-out: ROCK2 Ki)	Ki (ROCK1; Avg, 10 μM ATP)	Ki (ROCK1; average Ki)
CSc1ccc(CN2CCC[C@H](Nc3ccc4[nH]ncc4c3)C2)cc1 [Compound 1.075, (S)-N-(1-(4-(methylthio)benzyl)piperidin-3-yl)-1H-indazol-5-amine]	975 nM	975 nM	348 nM	5320 nM	5320 nM	4.4 nM	4.4 nM	48.7 nM	48.7 nM
C#Cc1ccc(CN2CCC[C@H](Nc3ccc4[nH]ncc4c3)C2)cc1 [Compound 1.077, (S)-N-(1-(4-ethynylbenzyl)piperidin-3-yl)-1H-indazol-5-amine]	716 nM	716 nM	26 nM	5250 nM	5250 nM	11.1 nM	11.1 nM	76.1 nM	76.1 nM
COc1ccc(CN2CCC[C@H](Nc3ccc4[nH]ncc4c3)C2)cc1 [Compound 1.079, (S)-N-(1-(4-methoxybenzyl)piperidin-3-yl)-1H-indazol-5-amine]	3010 nM	3010 nM	2440 nM	7190 nM	7190 nM	4.7 nM	4.7 nM	71.5 nM	71.5 nM
CS(=O)(=O)Nc1cccc(CN2CCC[C@@H](Nc3ccc4[nH]ncc4c3)C2)c1 [Compound 1.093, (R)-N-(3-((3-(1H-indazol-5-ylamino)piperidin-1-yl)methyl)phenyl)methanesulfonamide]	2030 nM	2030 nM	363 nM	1820 nM	1820 nM	7.7 nM	7.7 nM	64.5 nM	64.5 nM
OCCn1ccc2ccc(CN3CCC[C@H](Nc4ccc5[nH]ncc5c4)C3)cc21 [Compound 1.109, (S)-2-(6-((3-(1H-indazol-5-ylamino)piperidin-1-yl)methyl)-1H-indol-1-yl)ethanol]	2500 nM	2500 nM	187 nM	5190 nM	5190 nM	9.6 nM	9.6 nM	58.8 nM	58.8 nM
O=C(COc1cccc(CN2CCC[C@@H](Nc3ccc4[nH]ncc4c3)C2)c1)Nc1cccnc1 [Compound 1.126, (R)-2-(3-((3-(1H-indazol-5-ylamino)piperidin-1-yl)methyl)phenoxy)-N-(pyridin-3-yl)acetamide]	–	–	0 nM	–	–	17.2 nM	17.2 nM	76.2 nM	76.2 nM
Cc1ccc(CN2CCC[C@@H](Nc3ccc4[nH]ncc4c3)C2)cc1 [Compound 1.133, (R)-N-(1-(4-methylbenzyl)piperidin-3-yl)-1H-indazol-5-amine]	532 nM	532 nM	1100 nM	148 nM	148 nM	4.3 nM	4.3 nM	25 nM	25 nM
Brc1ccc(CN2CCC[C@@H](Nc3ccc4[nH]ncc4c3)C2)cc1 [Compound 1.134, (R)-N-(1-(4-bromobenzyl)piperidin-3-yl)-1H-indazol-5-amine]	520 nM	520 nM	1550 nM	151 nM	151 nM	4.4 nM	4.4 nM	22.4 nM	22.4 nM
Cc1ccc(CN2CCC[C@@H](Nc3ccc4[nH]ncc4c3)C2)c(C)c1 [Compound 1.137, (R)-N-(1-(2,4-dimethylbenzyl)piperidin-3-yl)-1H-indazol-5-amine]	354 nM	354 nM	557 nM	198 nM	198 nM	5.1 nM	7.2 nM	25.8 nM	36.3 nM
CSc1cccc(CN2CCC[C@@H](Nc3ccc4[nH]ncc4c3)C2)c1 [Compound 1.159, (R)-N-(1-(3-(methylthio)benzyl)piperidin-3-yl)-1H-indazol-5-amine]	2060 nM	–	–	1230 nM	–	10.1 nM	–	48.1 nM	–
Clc1cccc(CN2CCC[C@H](Nc3ccc4[nH]ncc4c3)C2)c1 [Compound 1.170, (S)-N-(1-(3-chlorobenzyl)piperidin-3-yl)-1H-indazol-5-amine]	2050 nM	–	–	7810 nM	–	12.5 nM	–	80 nM	–
CC(C)(C)OC(=O)NCc1cccc(CN2CCC[C@H](Nc3ccc4[nH]ncc4c3)C2)c1 [Compound 1.176, (S)-tert-butyl 3-((3-(1H-indazol-5-ylamino)piperidin-1-yl)methyl)benzylcarbamate]	8760 nM	8760 nM	89 nM	20900 nM	20900 nM	–	–	314 nM	314 nM
FC(F)(F)c1ccc(CN2CCC[C@@H](Nc3ccc4[nH]ncc4c3)C2)cc1 [Compound 1.178, (R)-N-(1-(4-(trifluoromethyl)benzyl)piperidin-3-yl)-1H-indazol-5-amine]	1120 nM	–	–	711 nM	–	24.9 nM	–	138 nM	–
Brc1cccc(CN2CCC[C@H](Nc3ccc4[nH]ncc4c3)C2)c1 [Compound 1.183, (S)-N-(1-(3-bromobenzyl)piperidin-3-yl)-1H-indazol-5-amine]	2480 nM	–	–	9010 nM	–	16.8 nM	–	165 nM	–
c1cc(C2CC2)ccc1CN1CCC[C@H](Nc2ccc3[nH]ncc3c2)C1 [Compound 1.185, (S)-N-(1-(4-cyclopropylbenzyl)piperidin-3-yl)-1H-indazol-5-amine]	1150 nM	–	–	4220 nM	–	12.6 nM	–	81.6 nM	–
C#Cc1cccc(CN2CCC[C@@H](Nc3ccc4[nH]ncc4c3)C2)c1 [Compound 1.193, (R)-N-(1-(3-ethynylbenzyl)piperidin-3-yl)-1H-indazol-5-amine]	–	–	55 nM	–	–	14.8 nM	14.8 nM	64.9 nM	64.9 nM
C=Cc1ccc(CN2CCC[C@@H](Nc3ccc4[nH]ncc4c3)C2)cc1 [Compound 1.208, (R)-N-(1-(4-vinylbenzyl)piperidin-3-yl)-1H-indazol-5-amine]	721 nM	–	–	346 nM	–	12.9 nM	–	54.2 nM	–
COc1ccc(CN2CCC[C@@H](Nc3ccc4[nH]ncc4c3)C2)cc1 [Compound 1.226, (R)-N-(1-(4-methoxybenzyl)piperidin-3-yl)-1H-indazol-5-amine]	1350 nM	–	–	531 nM	–	8.8 nM	–	91.7 nM	–
c1ccc(CN2CCC[C@H](Nc3ccc4[nH]ncc4c3)C2)cc1 [Compound 1.227, (S)-N-(1-benzylpiperidin-3-yl)-1H-indazol-5-amine]	1580 nM	–	–	3480 nM	–	5.3 nM	–	47.5 nM	–
C=Cc1ccc(CN2CCC[C@H](Nc3ccc4[nH]ncc4c3)C2)cc1 [Compound 1.229, (S)-N-(1-(4-vinylbenzyl)piperidin-3-yl)-1H-indazol-5-amine]	3130 nM	–	–	24600 nM	–	18.4 nM	–	121 nM	–
c1cc2c(cc1CN1CCC[C@@H](Nc3ccc4[nH]ncc4c3)C1)CCO2 [Compound 1.246, (R)-N-(1-((2,3-dihydrobenzofuran-5-yl)methyl)piperidin-3-yl)-1H-indazol-5-amine]	1880 nM	–	–	1100 nM	–	11.2 nM	–	92.1 nM	–
CCS(=O)(=O)Nc1cc(CN2CCC[C@@H](Nc3ccc4[nH]ncc4c3)C2)ccc1C [Compound 1.259, (R)-N-(5-((3-(1H-indazol-5-ylamino)piperidin-1-yl)methyl)-2-methylphenyl)ethanesulfonamide]	–	–	264 nM	–	–	2.1 nM	2.1 nM	19.5 nM	19.5 nM
Cc1ccc(S(=O)(=O)Nc2cc(CN3CCC[C@@H](Nc4ccc5[nH]ncc5c4)C3)ccc2C)cc1 [Compound 1.260, (R)-N-(5-((3-(1H-indazol-5-ylamino)piperidin-1-yl)methyl)-2-methylphenyl)-4-methylbenzenesulfonamide]	–	–	291 nM	–	–	7.1 nM	7.1 nM	70.9 nM	70.9 nM
c1cc(N[C@@H]2CCN(Cc3ccc4cc[nH]c4c3)C2)c2ccncc2c1 [Compound 2.057, (R)-N-(1-((1H-indol-6-yl)methyl)pyrrolidin-3-yl)isoquinolin-5-amine]	–	–	431 nM	–	–	3.7 nM	3.7 nM	6.2 nM	6.2 nM
Oc1cccc(CN2CC[C@@H](Nc3cccc4cnccc34)C2)c1 [Compound 2.061, (R)-3-((3-(isoquinolin-5-ylamino)pyrrolidin-1-yl)methyl)phenol]	–	–	73 nM	–	–	1.8 nM	1.8 nM	10.5 nM	10.5 nM
c1cc(N[C@@H]2CCN(Cc3ccc4[nH]ccc4c3)C2)c2ccncc2c1 [Compound 2.065, (R)-N-(1-((1H-indol-5-yl)methyl)pyrrolidin-3-yl)isoquinolin-5-amine]	–	–	236 nM	–	–	1.8 nM	1.8 nM	4.1 nM	4.1 nM
